Data from patent US20080214621A1, “Cycloalkyl Lactam Derivatives As Inhibitors Of 11-Beta-Hydroxysteroid Dehydrogenase 1” (priority 2004, published 2008).
pIC50: −log10 of the molar value.

Molecular target: Human 11β-HSD type 1 (Homo sapiens, UniProt P28845)
Assay: 11β-HSD type 1 enzyme assay (NADPH production by fluorescence)
Assay type: biochemical
Conditions: recombinant human 11β-HSD type 1 enzyme, cortisol/NADP substrate, three hour incubation at room temperature
Protocol: Human 11β-HSD type 1 activity is measured by assaying NADPH production by fluorescence assay. Solid compounds are dissolved in DMSO to a concentration of 10 mM. Twenty microliters of each are then transferred to a column of a 96-well polypropylene Nunc plate where they are further diluted 50-fold followed by subsequent two-fold titration, ten times across the plate with additional DMSO using a Tecan Genesis 200 automated system. Plates are then transferred to a Tecan Freedom 200 system with an attached Tecan Temo 96-well head and an Ultra 384 plate reader. Reagents are supplied in 96-well polypropylene Nunc plates and are dispensed individually into black 96-well Molecular Devices High Efficiency assay plates (40 μL/well capacity) in the following fashion: 9 μL/well of substrate (2.22 mM NADP, 55.5 μM Cortisol, 10 mM Tris, 0.25% Prionex, 0.1% Triton X100), 3 μL/well of water to compound wells or 3 μL to control and standard wells, 6 μL/well recombinant human 11β-HSD type 1 enzyme, 2 μL/well of compound dilutions. […] Final DMSO concentration is 0.5% for all compounds, controls and standards. Plates are then placed on a shaker by the robotic arm of the Tecan for 15 seconds before being covered and stacked for a three hour incubation period at room temperature. Upon completion of this incubation, the Tecan robotic arm removes each plate individually from the stacker and places them in position for addition of 5 μL/well of a 250 μM carbenoxolone solution to stop the enzymatic reaction. Plates are then shaken once more for 15 seconds then placed into an Ultra 384 microplate reader (355EX/460EM) for detection of NADPH fluorescence.

Chain of Human 11β-HSD type 1 (P28845 whole entry): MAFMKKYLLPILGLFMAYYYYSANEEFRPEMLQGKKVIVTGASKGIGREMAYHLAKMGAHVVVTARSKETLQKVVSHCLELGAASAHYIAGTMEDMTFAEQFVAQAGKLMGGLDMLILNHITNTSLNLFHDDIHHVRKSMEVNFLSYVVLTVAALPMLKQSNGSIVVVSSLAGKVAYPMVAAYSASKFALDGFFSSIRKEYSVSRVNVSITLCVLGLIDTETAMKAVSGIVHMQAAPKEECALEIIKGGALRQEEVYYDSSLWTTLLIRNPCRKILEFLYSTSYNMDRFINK

| pIC50 | Structure (SMILES) |
| --- | --- |
| 6.61 | COc1ccc2cc(CC3CCN([C@H]4CC[C@@H](O)CC4)C3=O)ccc2c1 (relative stereo) [Example 8, 1-(cis-4-Hydroxy-cyclohexyl)-3-(6-methoxy-naphthalen-2-ylmethyl)-pyrrolidin-2-one] |
| 6.45 | O=C1C(Cc2ccc3ccccc3c2Br)CCN1C1CCCCC1 (stereo not shown) [Example 2, 3-(1-Bromo-naphthalen-2-ylmethyl)-1-cyclohexyl-pyrrolidin-2-one] |
| 6.87 | COc1ccc2cc(CC3CCN(C4CCCCC4)C3=O)ccc2c1 (stereo not shown) [Example 4, 1-Cyclohexyl-3-(6-methoxy-naphthalen-2-ylmethyl)-pyrrolidin-2-one] |
| 6.67 | COc1ccc2c(Cl)c(CC3CCN(C4CCCCC4)C3=O)ccc2c1 (stereo not shown) [Example 24, 3-((1-chloro-6-methoxynaphthalen-2-yl)methyl)-1-cyclohexylpyrrolidin-2-one] |
| 6.45 | COc1ccc2cc(CC3CCCN([C@H]4CC[C@H](O)CC4)C3=O)ccc2c1 (stereo partly shown) [Example 34] |
| 6.37 | COc1ccc2ccccc2c1CC1CCCN(C2CCCCC2)C1=O (stereo not shown) [Example 40, 1-Cyclohexyl-3-(2-methoxy-naphthalene-1-ylmethyl)-piperidin-2-one] |
| 6.46 | O=C1C(Cc2ccc3cc(-c4c(Cl)cccc4Cl)ccc3c2)CCN1C1CCCCC1 (stereo not shown) [Example 44] |
